Source: the supplement of paper PMC5412046
Structures can show the parent of a compound that is named as a salt.

system: SB.msgc-1; experiment: area under the dose-response curve of % viability (trapezoidal, 11 doses) (% viability x log10 concentration); higher = less cytotoxic; settings: SB.msgc-1 (sporadic gastric cancer)
Outline: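 Patient-derived gastric cancer cells, hereditary or sporadic, were plated at 500 cells in 5 μL medium per well of a 1536-well plate and given 23 nL of compound in DMSO by pintool across 11 threefold dilutions. The top concentration was recorded for each compound. After 48 h, CellTiter-Glo was added for 30 min at room temperature and luminescence was read on a ViewLux. Values are viability normalised to DMSO, taken either at the highest concentration or as trapezoidal area under the curve.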

SMILES	area under the dose-response curve
OC[C@H]1O[C@@H](Oc2ccc(O)cc2)[C@H](O)[C@@H](O)[C@@H]1O [Arbutin] (top concentration 46.0829 µM)	415
C\C1=C\N([C@H]2C[C@H](N=[N+]=[N-])[C@@H](CO)O2)C(=O)NC1=O [Zidovudine] (top concentration 46.0829 µM)	575
COc1ncc(-c2ccc3nccc(-c4ccnnc4)c3c2)cc1N[S+](=O)([O-])c1ccc(F)cc1F (top concentration 46.0829 µM)	257
CCCCCN(CCC12CC3CC(CC(C3)C1)C2)C(=O)NCCCc1ccncc1 [DE-096] (top concentration 46.0829 µM)	476
N=C(NCCCCCCNC(=N)NC(=N)Nc1ccc(Cl)cc1)NC(=N)Nc1ccc(Cl)cc1 [Chlorhexidine] (top concentration 46.0829 µM)	369
COC(=O)[C@@H]1CC2=CC(=O)CC[C@]2(C)[C@@]23O[C@@H]2C[C@@]2(C)[C@@H](CC[C@@]24CCC(=O)O4)[C@H]13 [Eplerenone] (top concentration 46.0829 µM)	524
CN(C)c1nc(Cc2ccc(NC(=O)c3ccc(C(F)(F)F)cc3)cc2)nc(N(C)C)c1CC(=O)O [AP-761] (top concentration 46.0829 µM)	542
Cc1coc2c1C(=O)C(=O)c1c-2ccc2c1CCCC2(C)C [Tanshinone IIA] (top concentration 46.0829 µM)	501
COc1cc2nccc(Oc3ccc(NC(=O)Nc4cc(C)on4)c(Cl)c3)c2cc1OC [Tivozanib] (top concentration 46.0829 µM)	446
Cc1cccc(-c2nn(C(=S)Nc3ccccc3)cc2-c2ccnc3ccccc23)n1 [A 83-01] (top concentration 46.0829 µM)	534
Clc2cccc(Cl)c2\N=C1/NCCN1 [Clonidine] (top concentration 46.0829 µM)	537
C[S+](=O)([O-])c1ccc(-c2cnc(N)c(C(=O)Nc3ccccc3)n2)cc1 [VE-821] (top concentration 46.0829 µM)	504
O=C1N(c2ccccc2)c2ccccc2C1(Cc1ccncc1)Cc1ccncc1 [Linopirdine] (top concentration 46.0829 µM)	540
CCOC(=O)/C=C/[C@H](C[C@@H]1CCNC1=O)NC(=O)[C@@H](CC(=O)[C@@H](NC(=O)c1cc(C)on1)C(C)C)Cc1ccc(F)cc1 [Rupintrivir] (top concentration 46.0829 µM)	549
Nc1c2c(nc3ccccc13)CCCC2 [Tacrine hydrochloride] (top concentration 46.0829 µM)	583
COc1ccccc1OCC(O)COC(N)=O (configuration not stated) [Methocarbamol] (top concentration 46.0829 µM)	498
COc1ccc([S+](=O)([O-])N(C(C)=O)c2ccccc2/C=C/c2cc[n+]([O-])cc2)cc1 [IVX-214] (top concentration 46.0829 µM)	373
CCCCc1oc2ccccc2c1C(=O)c1cc(I)c(OCCN(CC)CC)c(I)c1 [Amiodarone] (top concentration 46.0829 µM)	446
COc1cc2nc(N3CCN(C(=O)C4COc5ccccc5O4)CC3)nc(N)c2cc1OC (configuration not stated) [Doxazosin mesylate] (top concentration 46.0829 µM)	568
CC(C)(C(=O)NCC(F)(F)C(F)(F)F)C(=O)N[C@@H]1C(=O)Nc2ccccc2-c2ccccc21 (top concentration 46.0829 µM)	452
CC[C@H](CC[C@@H](C)[C@H]1CC[C@H]2[C@@H]3C\C=C/4C[C@@H](O)CC[C@]4(C)[C@H]3CC[C@]12C)C(C)C [beta-Sitosterol] (top concentration 46.0829 µM)	505
COc1ccc(-c2nc3cc(C4=NNC(=O)CC4C)ccc3[nH]2)cc1 (configuration not stated) [Pimobendan] (top concentration 46.0829 µM)	530
COC1=CC=C2/C3=N/CCN3\C(=N/C2=C1OC)NC(=O)C4=CC=CN=C4 [PIK-90] (top concentration 46.0829 µM)	474
CN1C(=O)CCS(=O)(=O)C1c1ccc(Cl)cc1 (configuration not stated) [Chlormezanone] (top concentration 46.0829 µM)	512

SMILES	area under the dose-response curve
CC(=O)O/N=C1/C(=C2\C(=O)Nc3cc(Br)ccc32)Nc2ccccc21 [6-Bromoindirubin-3'-acetoxime] (top concentration 46.0829 µM)	426
O=C(NCC1CN(c2ccc(N3CCOCC3=O)cc2)C(=O)O1)c1ccc(Cl)s1 (configuration not stated) [Rivaroxaban] (top concentration 46.0829 µM)	505
CC[C@@H]1C(=O)N(C)c2cnc(Nc3ccc(C(=O)NC4CCN(C)CC4)cc3OC)nc2N1C1CCCC1 [BI-2536] (top concentration 46.0829 µM)	318
NCCCCCC(=O)O [Aminocaproic acid] (top concentration 46.0829 µM)	518
C[S+]([O-])(=O)C1=CC=C(C=C1)C/2=C(/C(=O)OC2)C3=CC=CC=C3 [Rofecoxib] (top concentration 46.0829 µM)	545
CC(=O)SCC(Cc1ccccc1)C(=O)NCC(=O)OCc1ccccc1 (configuration not stated) [Racecadotril] (top concentration 46.0829 µM)	358
O=C(c1ccccc1)c1ccc2n1CCC2C(=O)O (configuration not stated) [Ketorolac] (top concentration 46.0829 µM)	408
O=C1c2c(O)ccc(O)c2C(=O)c2c(NCCNCCO)ccc(NCCNCCO)c21 [Mitoxantrone] (top concentration 46.0829 µM)	402
CN1C(=O)C(=C/2N(C(=O)N(C3CC3)C(=O)C2=C1/NC4=CC=C(I)C=C4F)C5=CC=CC(=C5)NC(C)=O)\C [Trametinib] (top concentration 46.0829 µM)	457
C1CCC(C(CC2CCCCN2)C2CCCCC2)CC1 (configuration not stated) [Perhexiline] (top concentration 46.0829 µM)	493
Cc1c[nH]c(/C=C2\C(=O)Nc3ccccc32)c1CCC(=O)O [SU-5402] (top concentration 46.0829 µM)	482
OC(=O)C(CC/1=C/C(=O)NC2=CC=CC=C12)NC(=O)C3=CC=C(Cl)C=C3 (configuration not stated) [Rebamipide] (top concentration 46.0829 µM)	446
CCC[C@H](Nc1nc(-c2ccc(NC(=O)NCC)c(OC)c2)ncc1C)c1cccnc1 [Lexibulin hydrochloride] (top concentration 46.0829 µM)	289
O=C(Nc1ncc(-c2cc(C(F)F)nn2-c2c(Cl)cccc2Cl)s1)C1CC1 [BMS-3] (top concentration 46.0829 µM)	394
OC1=C(C=CC=C1)C2=CC=C(C=C2)C3=CSC4=C3C(=C(/C#N)C(=O)N4)/O (top concentration 46.0829 µM)	511
CCCCCCCCCCCCc1ccc([S+](=O)([O-])Nc2nncs2)cc1 [PHT-427] (top concentration 46.0829 µM)	502
Nc1nc(Cl)nc2c1ncn2[C@H]1C[C@H](O)[C@@H](CO)O1 [Cladribine] (top concentration 46.0829 µM)	420
NC/1=N/C2=C([NH]C=N2)C(=S)N1 [Tioguanine] (top concentration 46.0829 µM)	445
O=C(Nc1ccncc1)C(=O)c1cn(Cc2ccc(Cl)cc2)c2ccccc12 [Indibulin] (top concentration 46.0829 µM)	398
O=c1[nH]c(=O)n([C@H]2C[C@H](O)[C@@H](CO)O2)cc1/C=C/Br [Brivudine] (top concentration 46.0829 µM)	487
FC(F)(F)c1ccc(Nc2nc3cc(Oc4ccnc(-c5ncc(C(F)(F)F)[nH]5)c4)ccc3[nH]2)cc1 [RAF-265 derivative] (top concentration 46.0829 µM)	436
CC(C)C(=O)Oc1ccc(CO)cc1[C@H](CCN(C(C)C)C(C)C)c1ccccc1 [Fesoterodine fumarate] (top concentration 46.0829 µM)	512
COc1ccc(C(=O)c2c(C)n(CCN3CCOCC3)c3ccccc23)cc1 [Pravadoline] (top concentration 46.0829 µM)	463
